Reference: US11970498B2, “CDK2 inhibitors” (BLUEPRINT MEDICINES CORPORATION, priority 2021, dated 2024)

Columns and labels:
CDK2/Cyclin E = CDK2/Cyclin E (Homo sapiens, UniProt P24941); assay: CDK2/Cyclin E biochemical phosphorylation assay (Caliper mobility shift); conditions: apparent IC50; 1.0 mM ATP or ATP Km; 1.25 nM enzyme; 25° C.; read-out: CDK2/cyclin E1 IC50
Procedure, shortened: (§1)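 Caliper electrophoretic separation of substrate and phosphopeptide gave apparent IC50s. Enzymes: CDK1/Cyclin B1 GST-tag 1.5 nM, CDK2/Cyclin E 1.25 nM; ATP 1.0 mM or at Km; 7.5 µM FL-peptide; pH 7.5 HEPES buffer, 1% DMSO; room temperature until 10–20% phosphorylated, then EDTA quench.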

CDK1/Cyclin B1, GST-tag = target: T1, CDK1/Cyclin B1, GST-tag (Homo sapiens, UniProt P06493); assay: CDK1/Cyclin B1 biochemical phosphorylation assay (Caliper mobility shift); conditions: apparent IC50; 1.0 mM ATP or ATP Km; 1.5 nM enzyme; 25° C.
T1 construct: GST
T1 sequence (P06493 whole entry): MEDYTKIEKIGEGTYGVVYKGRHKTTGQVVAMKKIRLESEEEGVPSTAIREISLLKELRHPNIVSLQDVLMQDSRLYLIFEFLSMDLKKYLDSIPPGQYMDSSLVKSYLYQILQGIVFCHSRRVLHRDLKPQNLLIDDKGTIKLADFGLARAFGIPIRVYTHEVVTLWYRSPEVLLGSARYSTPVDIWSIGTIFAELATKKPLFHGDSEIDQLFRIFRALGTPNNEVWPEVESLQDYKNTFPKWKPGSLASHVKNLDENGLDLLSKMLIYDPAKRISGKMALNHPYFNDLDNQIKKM
T1 sequence (P14635 whole entry partner): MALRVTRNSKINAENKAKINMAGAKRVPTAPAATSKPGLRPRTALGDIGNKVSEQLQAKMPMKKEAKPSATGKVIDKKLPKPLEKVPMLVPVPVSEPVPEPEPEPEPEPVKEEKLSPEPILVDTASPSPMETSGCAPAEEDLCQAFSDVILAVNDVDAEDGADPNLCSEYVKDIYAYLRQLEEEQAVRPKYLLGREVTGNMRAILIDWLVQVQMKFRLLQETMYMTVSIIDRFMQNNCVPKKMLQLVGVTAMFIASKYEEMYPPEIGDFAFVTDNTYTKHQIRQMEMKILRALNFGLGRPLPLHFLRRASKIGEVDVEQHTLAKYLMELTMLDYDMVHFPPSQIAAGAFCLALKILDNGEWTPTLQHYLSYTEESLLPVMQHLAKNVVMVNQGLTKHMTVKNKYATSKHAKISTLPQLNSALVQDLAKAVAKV
Procedure, shortened: as §1

Row | IC50 (CDK2/Cyclin E) [nM] | IC50 (CDK1/Cyclin B1, GST-tag) [nM] | SMILES
1 | 20 to 30 | ≥ 500 | FC(F)Oc1cc(Nc2cnc3cnn(C[C@@]4(F)CCOC4)c3n2)n[nH]1 (single isomer, unassigned) [Example 167, (S)-N-(5-(difluoromethoxy)-1H-pyrazol-3-yl)-1-((3-fluorotetrahydrofuran-3-yl)methyl)-1H-pyrazolo[3,4-b]pyrazin-6-amine or (R)-N-(5-(difluoromethoxy)-1H-pyrazol-3-yl)-1-((3-fluorotetrahydrofuran-3-yl)methyl)-1H-pyrazolo[3,4-b]pyrazin-6-amine]
2 | 30 to 100 | ≥ 500 | FC(F)Oc1cc(Nc2cnc3cnn(C[C@@]4(F)CCOC4)c3n2)n[nH]1 (single isomer, unassigned) [Example 168, (R)-N-(5-(difluoromethoxy)-1H-pyrazol-3-yl)-1-((3-fluorotetrahydrofuran-3-yl)methyl)-1H-pyrazolo[3,4-b]pyrazin-6-amine or (S)-N-(5-(difluoromethoxy)-1H-pyrazol-3-yl)-1-((3-fluorotetrahydrofuran-3-yl)methyl)-1H-pyrazolo[3,4-b]pyrazin-6-amine]
3 | 20 to 30 | ≥ 500 | N#C[C@@]1(Cn2ncc3ncc(Nc4cc(OC(F)F)[nH]n4)nc32)CCOC1 (single isomer, unassigned) [Example 169, (S)-3-((6-((5-(difluoromethoxy)-1H-pyrazol-3-yl)amino)-1H-pyrazolo[3,4-b]pyrazin-1-yl)methyl)tetrahydrofuran-3-carbonitrile or (R)-3-((6-((5-(difluoromethoxy)-1H-pyrazol-3-yl)amino)-1H-pyrazolo[3,4-b]pyrazin-1-yl)methyl)tetrahydrofuran-3-carbonitrile]
4 | > 100 | ≥ 500 | N#C[C@@]1(Cn2ncc3ncc(Nc4cc(OC(F)F)[nH]n4)nc32)CCOC1 (single isomer, unassigned) [Example 170, (R)-3-((6-((5-(difluoromethoxy)-1H-pyrazol-3-yl)amino)-1H-pyrazolo[3,4-b]pyrazin-1-yl)methyl)tetrahydrofuran-3-carbonitrile or (S)-3-((6-((5-(difluoromethoxy)-1H-pyrazol-3-yl)amino)-1H-pyrazolo[3,4-b]pyrazin-1-yl)methyl)tetrahydrofuran-3-carbonitrile]
5 | 10 to 20 | ≥ 500 | O[C@H]1CC[C@@H](Cn2ncc3ncc(Nc4cc(OC(F)F)[nH]n4)nc32)CC1 (single isomer, unassigned) [Example 171, (1s,4s)-4-((6-((5-(difluoromethoxy)-1H-pyrazol-3-yl)amino)-1H-pyrazolo[3,4-b]pyrazin-1-yl)methyl)cyclohexan-1-ol or (1r,4r)-4-((6-((5-(difluoromethoxy)-1H-pyrazol-3-yl)amino)-1H-pyrazolo[3,4-b]pyrazin-1-yl)methyl)cyclohexan-1-ol]
6 | 10 to 20 | ≥ 500 | O[C@H]1CC[C@@H](Cn2ncc3ncc(Nc4cc(OC(F)F)[nH]n4)nc32)CC1 (single isomer, unassigned) [Example 172, (1r,4r)-4-((6-((5-(difluoromethoxy)-1H-pyrazol-3-yl)amino)-1H-pyrazolo[3,4-b]pyrazin-1-yl)methyl)cyclohexan-1-ol or (1s,4s)-4-((6-((5-(difluoromethoxy)-1H-pyrazol-3-yl)amino)-1H-pyrazolo[3,4-b]pyrazin-1-yl)methyl)cyclohexan-1-ol]
7 | 20 to 30 | ≥ 500 | C[C@@H](c1cnccc1F)n1ncc2ncc(Nc3cc(OC(F)F)[nH]n3)nc21 (single isomer, unassigned) [Example 173, (S)-N-(5-(difluoromethoxy)-1H-pyrazol-3-yl)-1-(1-(4-fluoropyridin-3-yl)ethyl)-1H-pyrazolo[3,4-b]pyrazin-6-amine or (R)-N-(5-(difluoromethoxy)-1H-pyrazol-3-yl)-1-(1-(4-fluoropyridin-3-yl)ethyl)-1H-pyrazolo[3,4-b]pyrazin-6-amine]
8 | > 100 | ≥ 500 | C[C@@H](c1cnccc1F)n1ncc2ncc(Nc3cc(OC(F)F)[nH]n3)nc21 (single isomer, unassigned) [Example 174, (R)-N-(5-(difluoromethoxy)-1H-pyrazol-3-yl)-1-(1-(4-fluoropyridin-3-yl)ethyl)-1H-pyrazolo[3,4-b]pyrazin-6-amine or (S)-N-(5-(difluoromethoxy)-1H-pyrazol-3-yl)-1-(1-(4-fluoropyridin-3-yl)ethyl)-1H-pyrazolo[3,4-b]pyrazin-6-amine]
9 | ≤ 10 | 100 to 500 | C[C@@H](O)c1nn(CC2CCOCC2)c2nc(Nc3cc(OC(F)F)[nH]n3)cnc12 (single isomer, unassigned) [Example 175, (R)-1-(6-((5-(difluoromethoxy)-1H-pyrazol-3-yl)amino)-1-((tetrahydro-2H-pyran-4-yl)methyl)-1H-pyrazolo[3,4-b]pyrazin-3-yl)ethan-1-ol or (S)-1-(6-((5-(difluoromethoxy)-1H-pyrazol-3-yl)amino)-1-((tetrahydro-2H-pyran-4-yl)methyl)-1H-pyrazolo[3,4-b]pyrazin-3-yl)ethan-1-ol]
10 | ≤ 10 | 100 to 500 | C[C@@H](O)c1nn(CC2CCOCC2)c2nc(Nc3cc(OC(F)F)[nH]n3)cnc12 (single isomer, unassigned) [Example 176, (S)-1-(6-((5-(difluoromethoxy)-1H-pyrazol-3-yl)amino)-1-((tetrahydro-2H-pyran-4-yl)methyl)-1H-pyrazolo[3,4-b]pyrazin-3-yl)ethan-1-ol or (R)-1-(6-((5-(difluoromethoxy)-1H-pyrazol-3-yl)amino)-1-((tetrahydro-2H-pyran-4-yl)methyl)-1H-pyrazolo[3,4-b]pyrazin-3-yl)ethan-1-ol]
11 | ≤ 10 | ≥ 500 | C[C@@H](O)c1nn([C@@H](C)c2cccnc2)c2nc(Nc3cc(OC(F)F)[nH]n3)cnc12 (single isomer, unassigned) [Example 177, (R)-1-(6-((5-(difluoromethoxy)-1H-pyrazol-3-yl)amino)-1-((S)-1-(pyridin-3-yl)ethyl)-1H-pyrazolo[3,4-b]pyrazin-3-yl)ethan-1-ol or (S)-1-(6-((5-(difluoromethoxy)-1H-pyrazol-3-yl)amino)-1-((S)-1-(pyridin-3-yl)ethyl)-1H-pyrazolo[3,4-b]pyrazin-3-yl)ethan-1-ol]
12 | ≤ 10 | ≥ 500 | C[C@@H](O)c1nn([C@@H](C)c2cccnc2)c2nc(Nc3cc(OC(F)F)[nH]n3)cnc12 (single isomer, unassigned) [Example 178, (S)-1-(6-((5-(difluoromethoxy)-1H-pyrazol-3-yl)amino)-1-((S)-1-(pyridin-3-yl)ethyl)-1H-pyrazolo[3,4-b]pyrazin-3-yl)ethan-1-ol or (R)-1-(6-((5-(difluoromethoxy)-1H-pyrazol-3-yl)amino)-1-((S)-1-(pyridin-3-yl)ethyl)-1H-pyrazolo[3,4-b]pyrazin-3-yl)ethan-1-ol]
13 | 30 to 100 | ≥ 500 | O[C@@H]1C[C@H]1Cn1ncc2ncc(Nc3cc(OC(F)F)[nH]n3)nc21 (single isomer, unassigned) [Example 179, (1R,2S)-2-((6-((5-(difluoromethoxy)-1H-pyrazol-3-yl)amino)-1H-pyrazolo[3,4-b]pyrazin-1-yl)methyl)cyclopropan-1-ol or (1S,2R)-2-((6-((5-(difluoromethoxy)-1H-pyrazol-3-yl)amino)-1H-pyrazolo[3,4-b]pyrazin-1-yl)methyl)cyclopropan-1-ol]
14 | 20 to 30 | ≥ 500 | O[C@@H]1C[C@H]1Cn1ncc2ncc(Nc3cc(OC(F)F)[nH]n3)nc21 (single isomer, unassigned) [Example 180, (1S,2R)-2-((6-((5-(difluoromethoxy)-1H-pyrazol-3-yl)amino)-1H-pyrazolo[3,4-b]pyrazin-1-yl)methyl)cyclopropan-1-ol or (1R,2S)-2-((6-((5-(difluoromethoxy)-1H-pyrazol-3-yl)amino)-1H-pyrazolo[3,4-b]pyrazin-1-yl)methyl)cyclopropan-1-ol]
15 | ≤ 10 | ≥ 500 | C[C@@H](O)c1nn([C@@H](C)C2CCOCC2)c2nc(Nc3cc(OC(F)F)[nH]n3)cnc12 (single isomer, unassigned) [Example 181, (R)-1-(6-((5-(difluoromethoxy)-1H-pyrazol-3-yl)amino)-1-((S)-1-(tetrahydro-2H-pyran-4-yl)ethyl)-1H-pyrazolo[3,4-b]pyrazin-3-yl)ethan-1-ol or (S)-1-(6-((5-(difluoromethoxy)-1H-pyrazol-3-yl)amino)-1-((S)-1-(tetrahydro-2H-pyran-4-yl)ethyl)-1H-pyrazolo[3,4-b]pyrazin-3-yl)ethan-1-ol]
16 | ≤ 10 | ≥ 500 | C[C@@H](O)c1nn([C@@H](C)C2CCOCC2)c2nc(Nc3cc(OC(F)F)[nH]n3)cnc12 (single isomer, unassigned) [Example 182, (S)-1-(6-((5-(difluoromethoxy)-1H-pyrazol-3-yl)amino)-1-((S)-1-(tetrahydro-2H-pyran-4-yl)ethyl)-1H-pyrazolo[3,4-b]pyrazin-3-yl)ethan-1-ol or (R)-1-(6-((5-(difluoromethoxy)-1H-pyrazol-3-yl)amino)-1-((S)-1-(tetrahydro-2H-pyran-4-yl)ethyl)-1H-pyrazolo[3,4-b]pyrazin-3-yl)ethan-1-ol]
17 | 30 to 100 | ≥ 500 | FC[C@H](C1CCOCC1)n1ncc2ncc(Nc3cc(OC(F)F)[nH]n3)nc21 (single isomer, unassigned) [Example 183]
